According to ChEMBL document CHEMBL1201862, “PubChem BioAssay data set” (2004):
Where “and” joins values, the source holds several entries; their conditions need not be identical. Identical values can stand only once.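 Cultured in 96-well plates, cells were exposed to test compound for 48 hours across five concentrations. GI50: concentration for 50% inhibition of growth.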 Calls of active or inactive are those of the source. Cut-off read from the data, not from the text of the source: active = GI50 up to about 1.1 µM and inactive = higher. Starred links: 1 amine or outer side, 2 acyl side, 3 side chain; linkers in the order of their positions; H or OH if unused. Positions of bridges follow the written chain, without caps; N, C: chain ends. Non-standard residues stand in square brackets, D forms with d. Residues, ends and D or L forms follow the SMILES beside them. Chains are numbered I, II in the order given. Actinocin(9to1) = Cc1c2oc3c(C)ccc(C(=O)[*:1])c3nc-2c(C(=O)[*:2])c(N)c1=O; NMeY = CN[CH](Cc1ccc(O)cc1)C(=O)O; Sar = CNCC(=O)O

Legend:
Assay in all cases: growth of human tumour cells (NCI), 48 h
HOP-92 = system: HOP-92
OVCAR-8 = system: OVCAR-8
HCC 2998 = system: HCC 2998
U-251 = system: U-251
RXF 393 = system: RXF 393
SNB-75 = system: SNB-75
CCRF-CEM = system: CCRF-CEM
SW-620 = system: SW-620
NCI-H460 = system: NCI-H460
SR = system: SR
MOLT-4 = system: MOLT-4
SK-MEL-2 = system: SK-MEL-2
SF-539 = system: SF-539
786-0 = system: 786-0
HCT-116 = system: HCT-116
MCF7 = system: MCF7
NCI-H522 = system: NCI-H522
MDA-MB-435 = system: MDA-MB-435
MDA-N = system: MDA-N
BT-549 = system: BT-549
PC-3 = system: PC-3
CAKI-1 = system: CAKI-1
IGROV-1 = system: IGROV-1
OVCAR-4 = system: OVCAR-4
K562 = system: K562
UACC-257 = system: UACC-257
SK-MEL-5 = system: SK-MEL-5
ACHN = system: ACHN
A549 = system: A549
LOX IMVI = system: LOX IMVI
SK-OV-3 = system: SK-OV-3
MDA-MB-231 = system: MDA-MB-231
Malme-3M = system: Malme-3M
UACC-62 = system: UACC-62
OVCAR-5 = system: OVCAR-5
HCT-15 = system: HCT-15
TK-10 = system: TK-10
SN12C = system: SN12C
SF-295 = system: SF-295
NCI/ADR-RES = system: NCI/ADR-RES
M14 = system: M14
COLO 205 = system: COLO 205
NCI-H23 = system: NCI-H23
UO-31 = system: UO-31
OVCAR-3 = system: OVCAR-3
A498 = system: A498
HL-60 = system: HL-60
NCI-H226 = system: NCI-H226
DU-145 = system: DU-145
EKVX = system: EKVX
RPMI-8226 = system: RPMI-8226
Hs-578T = system: Hs-578T
SF-268 = system: SF-268
SNB-19 = system: SNB-19
KM12 = system: KM12

With N#Cc1c(-c2ccc(Cl)cc2)c(C#N)c(=O)n(NS(=O)(=O)c2ccccc2)c1S the GI50 (HOP-92) was 44.7 µM (inactive), the GI50 (OVCAR-8) was 19.9 µM (inactive) and the GI50 (HCC 2998) was > 10 µM (inactive). For the same compound, the GI50 (U-251) was 23.1 µM (inactive), the GI50 (RXF 393) was 35.8 µM (inactive) and the GI50 (SNB-75) was 28.7 µM (inactive). The GI50 (CCRF-CEM) was 5.79 µM (inactive), the GI50 (SW-620) was 26.2 µM (inactive) and the GI50 (NCI-H460) was 18.8 µM (inactive). The GI50 (SR) was 17 µM (inactive), the GI50 (MOLT-4) was 21.6 µM (inactive) and the GI50 (SK-MEL-2) was 47.3 µM (inactive). The GI50 (SF-539) was 18.3 µM (inactive), the GI50 (786-0) was 17.2 µM (inactive) and the GI50 (HCT-116) was 25.5 µM (inactive). The GI50 (MCF7) was 32.6 µM (inactive), the GI50 (NCI-H522) was 18.2 µM (inactive) and the GI50 (MDA-MB-435) was 23.5 µM (inactive). The GI50 (MDA-N) was 25.9 µM (inactive), the GI50 (BT-549) was 25.9 µM (inactive) and the GI50 (PC-3) was 19.1 µM (inactive). For the same compound, the GI50 (CAKI-1) was 26.2 µM (inactive), the GI50 (IGROV-1) was 21.6 µM (inactive) and the GI50 (OVCAR-4) was 56.6 µM (inactive). For the same compound, the GI50 (K562) was 27.9 µM (inactive), the GI50 (UACC-257) was 46.7 µM (inactive) and the GI50 (SK-MEL-5) was 14.2 µM (inactive). For the same compound, the GI50 (ACHN) was 24.9 µM (inactive), the GI50 (A549) was 29.4 µM (inactive) and the GI50 (LOX IMVI) was 18 µM (inactive). For the same compound, the GI50 (SK-OV-3) was 87.5 µM (inactive), the GI50 (MDA-MB-231) was 26.7 µM (inactive) and the GI50 (Malme-3M) was 25.9 µM (inactive). For the same compound, the GI50 (UACC-62) was 19.1 µM (inactive), the GI50 (OVCAR-5) was 54.7 µM (inactive) and the GI50 (HCT-15) was 21.9 µM. For the same compound, the GI50 (TK-10) was 18.5 µM (inactive), the GI50 (SN12C) was 25.2 µM (inactive) and the GI50 (SF-295) was 34.2 µM (inactive). For the same compound, the GI50 (NCI/ADR-RES) was 21.2 µM (inactive), the GI50 (M14) was 26.7 µM (inactive) and the GI50 (COLO 205) was 30.5 µM (inactive). The GI50 (NCI-H23) was 39.3 µM (inactive), the GI50 (UO-31) was 16.2 µM (inactive) and the GI50 (OVCAR-3) was 23.1 µM (inactive). The GI50 (A498) was 27.7 µM (inactive), the GI50 (HL-60) was 16.6 µM (inactive) and the GI50 (NCI-H226) was 30.3 µM (inactive). The GI50 (DU-145) was 52.8 µM (inactive), the GI50 (EKVX) was 32.6 µM (inactive) and the GI50 (RPMI-8226) was 23.9 µM (inactive).

In the case of O=C(O)c1ccccc1/N=N\c1c(O)c(S(=O)(=O)O)cc2cc(S(=O)(=O)O)ccc12, the GI50 (Hs-578T) is reported as 1.97 µM (inactive), the GI50 (HCC 2998) is reported as > 100 µM (inactive) and the GI50 (U-251) is reported as 1.48 µM (inactive). The GI50 (SW-620) was 1.85 µM (inactive), the GI50 (NCI-H460) was > 100 µM (inactive) and the GI50 (HCT-116) was 1.63 µM (inactive). For the same compound, the GI50 (MCF7) was > 100 µM (inactive), the GI50 (NCI-H522) was 0.0231 µM (active) and the GI50 (MDA-MB-435) was 2.65 µM (inactive). For the same compound, the GI50 (SF-268) was 1.8 µM (inactive), the GI50 (MDA-N) was 2.41 µM (inactive) and the GI50 (BT-549) was 0.201 µM (active). The GI50 (OVCAR-4) was 0.0962 µM (active), the GI50 (SK-MEL-5) was 4.72 µM (inactive) and the GI50 (A549) was 1.82 µM (inactive). The GI50 (LOX IMVI) was > 100 µM (inactive), the GI50 (SNB-19) was 2.81 µM (inactive) and the GI50 (Malme-3M) was 0.0711 µM (active). The GI50 (NCI/ADR-RES) was 1.06 µM (active), the GI50 (M14) was 3.83 µM (inactive) and the GI50 (COLO 205) was 1.2 µM (inactive). The GI50 (A498) was > 100 µM (inactive), the GI50 (HL-60) was < 0.01 µM (active) and the GI50 (NCI-H226) was 0.0239 µM (active). For the same compound, the GI50 (RPMI-8226) was 1.35 µM (inactive).

In the case of Cc1c2oc3c(C)ccc(C(=O)NC4C(=O)NC(C(C)C)C(=O)N5CCCC5C(=O)N(C)CC(=O)N(C)C(Cc5ccc(O)cc5)C(=O)OC4C)c3nc-2c(C(=O)NC2C(=O)NC(C(C)C)C(=O)N3CCCC3C(=O)N(C)CC(=O)N(C)C(Cc3ccc(O)cc3)C(=O)OC2C)c(N)c1=O (stereo not given) (I: TVP[Sar][NMeY] / II: TVP[Sar][NMeY]; ester I:1-I:C, II:1-II:C; linker I:N-II:N via Actinocin(9to1); configuration not given here), the GI50 (KM12) is reported as 13.2 nM (active) and 17.1 nM (active), the GI50 (Hs-578T) is reported as 3.71 nM (active) and 4.25 nM (active) and the GI50 (SK-MEL-2) is reported as 9.06 nM (active) and 13.1 nM (active). For the same compound, the GI50 (SF-539) was 12.4 nM (active) and 15.3 nM (active), the GI50 (MCF7) was 1.89 nM (active) and 2.16 nM (active) and the GI50 (NCI-H522) was 2.25 nM (active) and 4.33 nM (active). For the same compound, the GI50 (SF-268) was 11 nM (active) and 17.7 nM (active), the GI50 (BT-549) was 15 nM (active) and 17.3 nM (active) and the GI50 (IGROV-1) was 6.05 nM (active) and 7.46 nM (active). The GI50 (OVCAR-4) was 43 nM (active) and 42.6 nM (active), the GI50 (SN12C) was 5.69 nM (active) and 11 nM (active) and the GI50 (HL-60) was 4.3 nM (active) and 5.39 nM (active). For the same compound, the GI50 (NCI-H226) was 20.6 nM (active) and 39.3 nM (active) and the GI50 (RPMI-8226) was 8.59 nM (active) and 7.03 nM (active).
